Tests used:
MEK1 activated ERK1 = molecular target: T1, MEK1 activated ERK1 (Homo sapiens, UniProt P27361); experiment: Omnia continuous-read kinase assay for potency against MEK1 activated ERK1; type: biochemical; details: MEK1 activated ERK1, ATP at KM; read-out: ERK1 Omnia WT ATP KM IC50
T1 construct: purchased Millipore (Billerica, Mass.) 14-439-K
How it was run: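 Apparent IC50 came from initial reaction slopes (RFU vs time) plotted against log inhibitor with a variable-slope fit. Reactions were started with ERK1 (4 nM final) added to 50 μM ATP, roughly at its appKM, and 10 μM Sox-conjugated ST17 peptide in 20 mM Tris pH 7.5, 5 mM MgCl2. Fluorescence was monitored every 71 seconds.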

[1] = tested on: ERK1/2 phosphorylation of p90RSK in HT29 cells; experiment: pRSK MSD Assay in HT29 cells; type: cell-based; details: Homo sapiens, HT-29, read-out: ERK1/ERK2 PRSK MSD HT29 EC50
How it was run: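 Phospho-RSK level, read by electrochemiluminescence on RSK-antibody-coated MSD plates with a phospho-RSK/Sulfo-tag detection pair, reports cellular ERK1/2 activity. HT29 cells, kept overnight in 0.1% FBS medium, were exposed to compound for 120 min at 37° C before lysis.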

[2] = tested on: HT-29 cells (colorectal adenocarcinoma); experiment: Inhibition of cancer cell proliferation, HT-29 (CellTiterGlo, 72 hours); type: cell-based; details: Homo sapiens
How it was run: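 Proliferation over 72 h at 37° C was read by CellTiterGlo luminescence, translated to cell counts with a cell-density standard curve (390–50,000 cells). Compound added as 3-fold dilutions from a 5,000 nM two-fold stock to 3000 seeded HT-29 cells; GI50 from percent inhibition relative to untreated wells.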

[3] = tested on: A375 cells (malignant melanoma); experiment: Inhibition of cancer cell proliferation, A375 (CellTiterGlo, 72 hours); type: cell-based; details: Homo sapiens, A-375
Protocol: Measurement of Inhibition of Cancer Cell Proliferation (A375/Malignant Melanoma)
The following protocol used an A375 cell line, which cell line is a model for malignant melanoma. A375 cells were split and 3000 cells in […] of growth medium were added per well of a flat-bottom 96-well plate. A two-fold test compound solution in serum-free DMEM was made, starting at 5,000 nM. Then, 3-fold serial dilutions were made across the plate from well 1 to well 11. Well 12, the last well in a row on the plate, was left as untreated control. 100 μl compound solutions were then transferred to the wells, so the total volume of media was 200 μl per well. Plates were returned to a 37° C. incubator, and the cells were cultured for 72 hours. To measure cell proliferation after 72 hours, media was discarded from the plates, 50 μl/well of fresh medium was added, and 50 μl CellTiterGlo solution was added (Promega Cat#G7573). The plate was covered with a dark lid and incubated for 10 min. A white sealing tape was applied to the bottom of the plate, and the plate was read in a luminescence plate reader. […] 50 μl CellTiterGlo was added per well, and the plate was read in a luminescence plate reader after 10 min. The reading was plotted vs. cell number to generate a standard curve and the equation of the curve fit. The compound-treated sample luminescence readings were converted to cell numbers using the curve-fit equation. The percent of inhibition, using untreated control as 100% growth, was then calculated. GI50 was then calculated by GraphPad Prism.

Erk1 = molecular target: T2, Erk1 (Homo sapiens, UniProt P27361); experiment: Protein Mass Modification Assay (intact protein MALDI, 60 min, 10-fold excess of compound); type: binding
T2 construct: purchased Millipore 14-439
Protocol: Protein Mass Modification Assay
Intact protein: Erk1 from Millipore (Cat. No. 14-439) was incubated for 60 min. at room temperature with a 10-fold excess of test compound to protein. 4 μL aliquots of the resulting mixture were diluted with 15 μL of 0.2% TFA prior to micro C4 ZipTipping directly onto the MALDI target using sinapinic acid as the desorption matrix (10 mg/ml in 0.1% TFA:Acetonitrile 50:50, v/v). The centroid mass of the target protein in the control sample was compared with the centroid mass of the target protein incubated with compound. A shift in the centroid mass of the treated protein compared to the untreated protein was divided by the molecular weight of the compound. This number corresponds to the percentage of modified protein after one hour incubation. Results from this assay are reported in Table A under the column “ERK1 Mass Mod (%).”

T2 sequence (P27361 whole entry): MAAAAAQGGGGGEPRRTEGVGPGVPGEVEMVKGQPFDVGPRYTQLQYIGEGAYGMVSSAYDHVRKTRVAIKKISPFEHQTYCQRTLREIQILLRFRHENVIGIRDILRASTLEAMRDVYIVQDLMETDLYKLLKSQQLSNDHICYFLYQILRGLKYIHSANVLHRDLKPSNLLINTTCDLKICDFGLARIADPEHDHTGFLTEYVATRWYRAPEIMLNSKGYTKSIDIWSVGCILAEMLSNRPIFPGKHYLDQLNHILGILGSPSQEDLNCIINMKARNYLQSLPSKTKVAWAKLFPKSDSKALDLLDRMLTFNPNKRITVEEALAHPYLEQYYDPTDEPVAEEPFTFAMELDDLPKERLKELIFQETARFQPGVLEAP
T1 sequence (P27361 whole entry): as above

Row | IC50 (MEK1 activated ERK1) | EC50 [1] | GI50 [2] | GI50 [3] | SMILES | ERK1 Mass Mod (%) (Erk1)
1 | 101 to 500 nM | < 100 nM | < 100 nM | < 100 nM | C=CC(=O)Nc1cc(C)ccc1Nc1nc(Nc2cc(C(N)=O)ccc2C)ncc1C(F)(F)F [Compound I-79, 3-((4-((2-Acrylamido-4-methylphenyl)amino)-5-(trifluoromethyl)pyrimidin-2-yl)amino)-4-methylbenzamide] | 
2 | 101 to 500 nM |  |  |  | C=CC(=O)Nc1cc(OC)ccc1Nc1nc(Nc2ccc(N3CCC[C@H]3C(N)=O)cc2C#N)ncc1Cl [Compound I-178, (S)-1-(4-((4-((2-acrylamido-4-methoxyphenyl)amino)-5-chloropyrimidin-2-yl)amino)-3-cyanophenyl)pyrrolidine-2-carboxamide] | E (a mass modification of ≧70%)
3 |  |  |  |  | C=CC(=O)Nc1ccccc1Nc1nc(N[C@H]2CC[C@H](F)CC2)ncc1C(F)(F)F [Compound I-111, N-(2-((2-(trans-(4-fluorocyclohexyl)amino)-5-(trifluoromethyl)pyrimidin-4-yl)amino)phenyl)acrylamide] | E (a mass modification of ≧70%)
4 | 101 to 500 nM | 101 to 500 nM | 101 to 500 nM | 101 to 500 nM | C=CC(=O)Nc1cc(C)ccc1Nc1nc(Nc2cc(C(=O)NC)c(F)cc2C)ncc1Cl [Compound I-233, 5-((4-((2-acrylamido-4-methylphenyl)amino)-5-chloropyrimidin-2-yl)amino)-2-fluoro-N,4-dimethylbenzamide] | 
5 | 101 to 500 nM | > 1000 nM | 101 to 500 nM | 101 to 500 nM | CC(=O)N1CCC[C@H](Nc2ncc(C(F)(F)F)c(N[C@H]3[C@@H](C(N)=O)[C@@H]4C=C[C@H]3C4)n2)C1 [Compound I-308, (1S,2S,3R,4R)-3-((2-(((S)-1-acetylpiperidin-3-yl)amino)-5-(trifluoromethyl)pyrimidin-4-yl)amino)bicyclo[2.2.1]hept-5-ene-2-carboxamide] | 
6 | 101 to 500 nM | 101 to 500 nM | 101 to 500 nM | < 100 nM | C=CC(=O)Nc1cc(C)ccc1Nc1nc(Nc2ccncc2C)ncc1Cl [Compound I-236, N-(2-((5-chloro-2-((3-methylpyridin-4-yl)amino)pyrimidin-4-yl)amino)-5-methylphenyl)acrylamide] | 
7 | 101 to 500 nM | 101 to 500 nM | < 100 nM | 101 to 500 nM | C=CC(=O)Nc1ccccc1Nc1nc(Nc2cc(C(=O)NCCO)c(F)cc2C)ncc1Cl [Compound I-232, 5-((4-((2-acrylamidophenyl)amino)-5-chloropyrimidin-2-yl)amino)-2-fluoro-N-(2-hydroxyethyl)-4-methylbenzamide] | 
8 | 101 to 500 nM | 101 to 500 nM | < 100 nM | 101 to 500 nM | C=CC(=O)Nc1ccccc1Nc1nc(Nc2cc(C(=O)NC)c(F)cc2C)ncc1C(F)(F)F [Compound I-80, 5-((4-((2-Acrylamidophenyl)amino)-5-(trifluoromethyl)pyrimidin-2-yl)amino)-2-fluoro-N,4-dimethylbenzamide] | 
9 | 101 to 500 nM | < 100 nM | < 100 nM | < 100 nM | C=CC(=O)Nc1cc(C)ccc1Nc1nc(Nc2ccnc(OC)c2)ncc1Cl [Compound I-235, N-(2-((5-chloro-2-((2-methoxypyridin-4-yl)amino)pyrimidin-4-yl)amino)-5-methylphenyl)acrylamide] | 
10 | 101 to 500 nM | 101 to 500 nM | 101 to 500 nM | 101 to 500 nM | C=CC(=O)Nc1cc(C)ccc1Nc1nc(Nc2cc(C(=O)NCCO)c(F)cc2C)ncc1Cl [Compound I-234, 5-((4-((2-acrylamido-4-methylphenyl)amino)-5-chloropyrimidin-2-yl)amino)-2-fluoro-N-(2-hydroxyethyl)-4-methylbenzamide] | 
11 | 101 to 500 nM | 101 to 500 nM | < 100 nM | < 100 nM | C=CC(=O)Nc1ccccc1Nc1nc(Nc2cc(C(=O)NCCO)c(F)cc2C)ncc1C(F)(F)F [Compound I-81, 5-((4-((2-Acrylamidophenyl)amino)-5-(trifluoromethyl)pyrimidin-2-yl)amino)-2-fluoro-N-(2-hydroxyethyl)-4-methylbenzamide] | 
12 | 101 to 500 nM | > 1000 nM | 501 to 999 nM | 101 to 500 nM | O=C(CCCl)Nc1ccccc1Nc1nc(N[C@H]2CCCN(C(=O)CO)C2)ncc1C(F)(F)F [Compound I-22, (S)-3-Chloro-N-(2-((2-((1-(2-hydroxyacetyl)piperidin-3-yl)amino)-5-(trifluoromethyl)pyrimidin-4-yl)amino)phenyl)propanamide] | 

Row | SMILES | IC50 (MEK1 activated ERK1) | EC50 [1] | GI50 [2] | GI50 [3] | ERK1 Mass Mod (%) (Erk1)
13 | C=CC(=O)Nc1cc(OC)ccc1Oc1nc(Nc2ccc(N3CCC[C@@H]3CO)cc2OC)ncc1C(N)=O [Compound I-264, (R)-4-(2-acrylamido-4-methoxyphenoxy)-2-((4-(2-(hydroxymethyl)pyrrolidin-1-yl)-2-methoxyphenyl)amino)pyrimidine-5-carboxamide] | > 1000 nM |  |  |  | F (a mass modification of 31-69%)
14 | C=CC(=O)Nc1ccccc1Nc1nc(Nc2cc(C(=O)NOCCO)ccc2C#N)ncc1Cl [Compound I-202, 3-((4-((2-acrylamidophenyl)amino)-5-chloropyrimidin-2-yl)amino)-4-cyano-N-(2-hydroxyethoxyl)benzamide] | 101 to 500 nM |  |  |  | F (a mass modification of 31-69%)
15 | C=CC(=O)Nc1ccccc1Nc1nc(Nc2ccc(N(CCNC(=O)OC(C)(C)C)C(C)=O)cc2OC)ncc1Cl [Compound I-174, tert-butyl(2-(N-(4-((4-((2-acrylamidophenyl)amino)-5-chloropyrimidin-2-yl)amino)-3-methoxyphenyl)acetamido)ethyl)carbamate] | 501 to 999 nM |  |  |  | E (a mass modification of ≧70%)
16 | C=CC(=O)Nc1cc(F)ccc1Nc1nc(N[C@H]2CC[C@@H](F)CC2)ncc1C(F)(F)F [Compound I-8, N-(5-fluoro-2-((2-((cis-4-fluorocyclohexyl)amino)-5-(trifluoromethyl)pyrimidin-4-yl)amino)phenyl)acrylamide] | 101 to 500 nM |  |  |  | E (a mass modification of ≧70%)
17 | C=CC(=O)Nc1ccccc1Nc1nc(Nc2ccc(N3CCN(C(C)=O)CC3)cc2OC)ncc1Cl [Compound I-149, N-(2-((2-((4-(4-acetylpiperazin-1-yl)-2-methoxyphenyl)amino)-5-chloropyrimidin-4-yl)amino)phenyl)acrylamide] | 101 to 500 nM |  |  |  | E (key: E: a mass modification of ≧70%; F: a mass modification of 31-69%; G: a mass modification ≦30%)
18 | C=CC(=O)Nc1ccccc1Nc1nc(N[C@@H]2CCC[C@H](C(=O)O)C2)ncc1Cl (racemic) [Compound I-133, Rac-3-((4-((2-acrylamidophenyl)amino)-5-chloropyrimidin-2-yl)amino)-cis-cyclohexanecarboxylic acid] | 101 to 500 nM |  |  |  | E (a mass modification of ≧70%)
19 | C=CC(=O)N[C@H]1CCCC[C@@H]1Nc1nc(N[C@H]2CCCN(C(=O)CO)C2)ncc1C(F)(F)F (racemic) [Compound I-27, Rac-N-(2-((2-(((R)-1-(2-hydroxyacetyl)piperidin-3-yl)amino)-5-(trifluoromethyl)pyrimidin-4-yl)amino)-trans-cyclohexyl)acrylamide] |  | 501 to 999 nM |  |  | F (key: E: a mass modification of ≧70%; F: a mass modification of 31-69%; G: a mass modification ≦30%)
